Holding throughout (format): biochemical
Test [1] addresses T1, Hordeum HPPD (SEQ ID NO:2) (Hordeum vulgare, UniProt O48604, A164G/R146V/R147D/R148G).
T1 construct: His-tag (N); made in house; host or cells: E. coli BL21 (DE3)
The test is described as follows: HPPD activity assay. The following applies: for Normalized tolerance index (TI): Hordeum HPPD variant Wild-type (reference, SEQ ID NO: 2); for TI (tolerance index): Hordeum HPPD, not normalized. The protocol:
(§1) The activity assay for HPPD is based on the analysis of homogentisic acid by reversed phase HPLC.
(§2) The assay mixture can contain 150 mM potassium phosphate buffer pH 7.0, 50 mM L-ascorbic acid, 100 μM Catalase (Sigma-Aldrich), 1 μM FeSO4 and 0.2 units of purified HPPD enzyme in a total volume of 505 μl. 1 unit is defined as the amount of enzyme that is required to produce 1 nmol of HGA per minute at 20° C.
(§3) The reaction is allowed to proceed for 45 min at room temperature. The reaction is stopped by the addition of 50 μl of 4.5 M phosphoric acid. The sample is filtered using a […] pore size PVDF filtration device. 5 μl of the cleared sample is analyzed on an UPLC HSS T3 column (particle size 1.8 μm, dimensions 2, 1×50 mm; Waters) by isocratic elution using 90% 20 mM NaH2PO4 pH 2.2, 10% methanol (v/v).
(§4) HGA is detected electrochemically at 750 mV (mode: DC; polarity: positive) and quantified by integrating peak areas (Empower software; Waters).
(§5) Inhibitors are dissolved in DMSO (dimethylsulfoxide) to a concentration of 0.5 mM. From this stock solution serial five-fold dilutions are prepared in DMSO, which are used in the assay. The respective inhibitor solution accounts for 1% of the assay volume. Thus, final inhibitor concentrations range from 5 μM to 320 pM, respectively. Activities are normalized by setting the uninhibited enzyme activity to 100%. IC50 values are calculated using non-linear regression.
(§6) Using methods which are described in the above examples or well known in the art, purified recombinant wild-type HPPD enzymes are characterized with respect to their kinetic properties and sensitivity towards HPPD inhibiting herbicides. Apparent michaelis constants (Km) and maximal reaction velocities (Vmax) are calculated by non-linear regression with the software GraphPad Prism 5 (GraphPad Software, La Jolla, USA) using a substrate inhibition model. […] Weighted means (by standard error) of Km and IC50 values are calculated from at least three independent experiments. The Cheng-Prusoff equation for competitive inhibition (Cheng, Y. C.; Prusoff, W. H. Biochem Pharmacol 1973, 22, 3099-3108) is used to calculate dissociation constants (Ki).
(§7) Field performance of the HPPD enzyme, which is used as a herbicide tolerance trait may depend not only on its lack of sensitivity towards HPPD inhibiting herbicides but also on its activity. To assess the potential performance of a herbicide tolerance trait a tolerance index (TI) is calculated using the following formula: […]
(§8) Easy comparison and ranking of each trait is enabled by normalizing tolerance indexes on Arabidopsis wild-type HPPD.

The test system of a further test is Kordia HPPD. The test is described as follows: HPPD activity assay. To be noted: HPPD enzyme Kordia. The protocol: as §1, §2, §3, §4, §5, §6, §7, §8
For a further test, the system named is Lolium HPPD. In words: HPPD activity assay. The following applies: HPPD enzyme Lolium. As for the experimental part:
as §1, §2, §3, §4, §5, §6, §7, §8

In the next test the test system is Rhodococcus HPPD1. The test is described as follows: HPPD activity assay. To be noted: HPPD enzyme Rhodococcus HPPD1. The protocol: as §1, §2, §3, §4, §5, §6, §7, §8
The subject of another test is Rhodococcus HPPD2. In words: HPPD activity assay. To be noted: HPPD enzyme Rhodococcus HPPD2. The protocol:
as §1, §2, §3, §4, §5, §6, §7, §8

The test system of another test is Synechococcus HPPD. In words: HPPD activity assay. The following applies: HPPD enzyme Synechococcus. As for the experimental part: as §1, §2, §3, §4, §5, §6, §7, §8
The next test has as its target T2, Hordeum HPPD F404L (Hordeum vulgare, UniProt O48604, A164G/F404L/R146V/R147D/R148G).
T2 construct: subcloned into a modified pET24D (Novagen) expression vector resulting in N-terminally His-tagged expression constructs; His tag (N); made in house; host or cells: E. coli BL21 (DE3)
The test is described as follows: HPPD activity assay, mutant. The following applies: Hordeum HPPD variant F404L; normalized on wild-type. As for the experimental part:
as §1, §2, §3, §4, §5
(§9) Purified, mutant HPPD enzymes are obtained by the methods described above. Dose response and kinetic measurements are carried out using the described HPPD activity assay. Apparent michaelis constants (Km) and maximal reaction velocities (Vmax) are calculated by non-linear regression with the software GraphPad Prism 5 (GraphPad Software, La Jolla, USA) using a substrate inhibition model. […] Weighted means (by standard error) of K. and IC50 values are calculated from at least three independent experiments. The Cheng-Prusoff equation for competitive inhibition (Cheng, Y. C.; Prusoff, W. H. Biochem Pharmacol 1973, 22, 3099-3108) is used to calculate dissociation constants (Ki).
(§10) Field performance of the optimized HPPD enzyme, which is used as a herbicide tolerance trait may depend not only on its lack of sensitivity towards HPPD inhibiting herbicides but also on its activity. To assess the potential performance of a herbicide tolerance trait a tolerance index (TI) is calculated using the following formula: […]
(§11) Easy comparison and ranking of each trait is enabled by normalizing tolerance indexes on the respective wild-type HPPD.

Another test concerns the target T3, Hordeum HPPD L320H (Hordeum vulgare, UniProt O48604, A164G/L320H/R146V/R147D/R148G).
T3 construct: His-tag (N); made in house; host or cells: E. coli BL21 (DE3)
In words: HPPD activity assay, mutant. To be noted: Hordeum HPPD variant L320H; normalized on wild-type. The protocol: as §1, §2, §3, §4, §5, §9, §10, §11

The target in test [2] is T4, Hordeum HPPD L320H, P321A (Hordeum vulgare, UniProt O48604, L320H/P321A).
T4 construct: His-tag (N); made in house; host or cells: E. coli BL21 (DE3)
T4 sequence (O48604 whole entry R146V/R147D/R148G/A164G/L320H/P321A): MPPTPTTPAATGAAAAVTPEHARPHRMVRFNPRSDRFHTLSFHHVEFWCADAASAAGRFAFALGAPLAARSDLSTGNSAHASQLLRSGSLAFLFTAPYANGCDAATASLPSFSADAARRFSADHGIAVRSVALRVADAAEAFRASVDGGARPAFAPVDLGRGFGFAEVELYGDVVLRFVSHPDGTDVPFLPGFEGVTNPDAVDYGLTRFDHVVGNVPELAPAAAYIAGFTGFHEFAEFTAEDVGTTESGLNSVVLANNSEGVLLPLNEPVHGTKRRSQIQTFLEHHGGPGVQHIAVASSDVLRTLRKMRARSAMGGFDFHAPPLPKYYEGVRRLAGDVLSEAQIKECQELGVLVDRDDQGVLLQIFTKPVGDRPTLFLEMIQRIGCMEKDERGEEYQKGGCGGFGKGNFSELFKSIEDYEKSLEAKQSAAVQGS
The test is described as follows: HPPD activity assay, mutant. To be noted: Hordeum HPPD variant L320H, normalized on wild-type. As for the experimental part:
as §1, §2, §3, §4, §5, §9, §10, §11

Another test addresses T5, Hordeum HPPD L320N (Hordeum vulgare, UniProt O48604, A164G/L320N/R146V/R147D/R148G).
T5 construct: His-tag (N); made in house; host or cells: E. coli BL21 (DE3)
In words: HPPD activity assay, mutant. To be noted: Hordeum HPPD variant L320N; normalized on wild-type. The protocol:
as §1, §2, §3, §4, §5, §9, §10, §11

Another test concerns the target T6, Hordeum HPPD L320Q (Hordeum vulgare, UniProt O48604, A164G/L320Q/R146V/R147D/R148G).
T6 construct: His-tag (N); made in house; host or cells: E. coli BL21 (DE3)
The test is described as follows: HPPD activity assay, mutant. The following applies: Hordeum HPPD variant L320Q; normalized on wild-type. As for the experimental part: as §1, §2, §3, §4, §5, §9, §10, §11

Test [3] deals with T7, Hordeum HPPD L353M, P321R, L320Q (Hordeum vulgare, UniProt O48604, L320Q/L353M/P321R).
T7 construct: His-tag (N); made in house; host or cells: E. coli BL21 (DE3)
T7 sequence (O48604 whole entry R146V/R147D/R148G/A164G/L320Q/P321R/L353M): as the sequence (O48604 whole entry R146V/R147D/R148G/A164G/L320H/P321A) above, with H320Q, A321R, L353M counted along it
The test is described as follows: HPPD activity assay, mutant. To be noted: Hordeum HPPD variant L353M, normalized on wild-type. The protocol: as §1, §2, §3, §4, §5, §9, §10, §11

The target in another test is T8, Hordeum HPPD R309K (Hordeum vulgare, UniProt O48604, A164G/R146V/R147D/R148G/R309K).
T8 construct: subcloned into a modified pET24D (Novagen) expression vector resulting in N-terminally His-tagged expression constructs; His tag (N); made in house; host or cells: E. coli BL21 (DE3)
T8 sequence (O48604 whole entry R146V/R147D/R148G/A164G/R309K): as the sequence (O48604 whole entry R146V/R147D/R148G/A164G/L320H/P321A) above, with R309K, H320L, A321P counted along it
The test is described as follows: HPPD activity assay, mutant. The following applies: Hordeum HPPD variant R309K; normalized on wild-type. As for the experimental part:
as §1, §2, §3, §4, §5, §9, §10, §11

For test [4], the target named is T1, Hordeum HPPD (SEQ ID NO:2). The test is described as follows: HPPD activity assay. The following applies: HPPD enzyme Hordeum.

T3 sequence (O48604 whole entry R146V/R147D/R148G/A164G/L320H): as the sequence (O48604 whole entry R146V/R147D/R148G/A164G/L320H/P321A) above, with A321P counted along it
T2 sequence (O48604 whole entry R146V/R147D/R148G/A164G/F404L): as the sequence (O48604 whole entry R146V/R147D/R148G/A164G/L320H/P321A) above, with H320L, A321P, F404L counted along it
T6 sequence (O48604 whole entry R146V/R147D/R148G/A164G/L320Q): as the sequence (O48604 whole entry R146V/R147D/R148G/A164G/L320H/P321A) above, with H320Q, A321P counted along it
T5 sequence (O48604 whole entry R146V/R147D/R148G/A164G/L320N): as the sequence (O48604 whole entry R146V/R147D/R148G/A164G/L320H/P321A) above, with H320N, A321P counted along it
T1 sequence (O48604 whole entry R146V/R147D/R148G/A164G): as the sequence (O48604 whole entry R146V/R147D/R148G/A164G/L320H/P321A) above, with H320L, A321P counted along it

Consider `CS(=O)(=O)c1ccc(C(=O)C2C(=O)CCCC2=O)c(Cl)c1COCC(F)(F)F` [Inhibitor 4, 2-[2-chloro-4-methylsulfonyl-3-(2,2,2-trifluoroethoxymethyl)benzoyl]cyclohexane-1,3-dione], for which the “Normalized tolerance index (TI)” value is 1 in test [1]; 1.2 at Hordeum HPPD F404L; 5.1 on Hordeum HPPD L320H; 4.3 in test [2]; 1.5 on Hordeum HPPD L320N; 1 at Hordeum HPPD L320Q. The “Normalized tolerance index (TI)” value in test [3] was 1.3; on Hordeum HPPD R309K, 4.6. The “TI normalized to Arabidopsis HPPD” value turned out to be 0.1 in the test on Kordia HPPD; 2.6 with Lolium HPPD; 0.6 in the test on Rhodococcus HPPD1; 0.5 in the test with Rhodococcus HPPD2; 0.1 in the test with Synechococcus HPPD; 0.1 in [4].

Turning to `COCCOCc1nc(C(F)(F)F)ccc1C(=O)C1=C(O)C2CCC(C2)C1=O` (stereo not drawn) [Inhibitor 3, 2-hydroxy-3-[2-(2-methoxyethoxymethyl)-6-(trifluoromethyl)pyridine-3-carbonyl]bicyclo[3.2.1]oct-2-en-4-one], the “Normalized tolerance index (TI)” value came to 1 in test [1]; 0.4 on Hordeum HPPD F404L; 3 on Hordeum HPPD L320H; 2.5 in [2]; 1.2 at Hordeum HPPD L320N; 1.1 at Hordeum HPPD L320Q. Besides, the “Normalized tolerance index (TI)” value in test [3] is 0.6; on Hordeum HPPD R309K, 2.5. Also, the “TI normalized to Arabidopsis HPPD” value in the test with Kordia HPPD was 0.3; with Lolium HPPD it was 2.5; with Rhodococcus HPPD1 it was 1.2; in the test on Rhodococcus HPPD2, 1.3; in the test with Synechococcus HPPD it was 0.0; in test [4] it was 0.2.

`Cc1c(C(=O)c2cnn(C)c2O)ccc(S(C)(=O)=O)c1C1=NOCC1` [Inhibitor 1, [3-(4,5-dihydroisoxazol-3-yl)-2-methyl-4-methylsulfonyl-phenyl]-(5-hydroxy-1-methyl-pyrazol-4-yl)methanone] yielded a Ki in [1] of 7.9 nM. Besides, the “Normalized tolerance index (TI)” value was 1 in test [1]; 3 on Hordeum HPPD F404L; 5.4 at Hordeum HPPD L320H; 5.1 in [2]; 1.3 on Hordeum HPPD L320N; 1.2 at Hordeum HPPD L320Q. Further, the figures for the “Normalized tolerance index (TI)” value (in [3]; on Hordeum HPPD R309K) were 5.3 and 1.5, respectively. For the same compound, the “TI (tolerance index)” value in test [1] came out at 3.5E−3. For the same compound, the “TI normalized to Arabidopsis HPPD” value in the test on Kordia HPPD is 3.2; in the test on Lolium HPPD it was 1.7; with Rhodococcus HPPD1, 18.9; in the test on Rhodococcus HPPD2 it was 19.3; in the test on Synechococcus HPPD it was 6.7; in [4], 3.7.

With `CS(=O)(=O)c1ccc(C(=O)C2C(=O)CCCC2=O)c([N+](=O)[O-])c1` [Inhibitor 2, 2-(4-methylsulfonyl-2-nitro-benzoyl)cyclohexane-1,3-dione], the Ki in [1] was determined as 73 nM. Besides, the “Normalized tolerance index (TI)” value worked out at 1 in test [1]; 0.9 at Hordeum HPPD F404L; 1.2 on Hordeum HPPD L320H; 3.5 in test [2]; 0.3 on Hordeum HPPD L320N; 0.3 on Hordeum HPPD L320Q. Also, the “Normalized tolerance index (TI)” value is given as 2.2 in test [3] and 1.3 on Hordeum HPPD R309K. In [1], the “TI (tolerance index)” value is listed as 3.2E−2. Also, the “TI normalized to Arabidopsis HPPD” value was found to be 0.1 with Kordia HPPD; 2.6 in the test on Lolium HPPD; 0.3 in the test on Rhodococcus HPPD1; 0.3 in the test on Rhodococcus HPPD2; 2.1 in the test with Synechococcus HPPD; 0.9 in test [4].

Broadly, the Ki is the equilibrium dissociation constant of an inhibitor or competing ligand from its target. Lower therefore signals a stronger hold on the target.

The values are drawn from patent US12065654B2, “Plants having increased tolerance to herbicides” (BASF SE, priority 2014, dated 2024).
